Measured values from paper PMC9506420, “Biological Evaluation of 3-Azaspiro[Bicyclo[3.1.0]Hexane-2,5′-Pyrimidines] as Potential Antitumor Agents” (International Journal of Molecular Sciences, 2022).
Several values for one entry are separate records, joined by “and”; a condition that tells them apart may be missing. Identical values can stand only once. Like-named read-outs stand apart in the source and are kept apart here.

How the values were obtained:
[1] = system: human cervical carcinoma (HeLa) cell line; test: MTS antiproliferative (cytotoxicity) assay, HeLa; type: cell-based; details: HeLa; for SI (selectivity index), HeLa: Vero as reference cell line; for IC50: Homo sapiens
Description: (§1) The cytotoxicity of synthesized 3-azaspiro[bicyclo[3.1.0]hexane-2,5′-pyrimidines] 4 against human erythroleukemia (K562), cervical carcinoma (HeLa), and T lymphocyte (Jurkat), as well as mouse colon carcinoma (CT26) and African green monkey kidney epithelial (Vero) cell lines as reference, was evaluated in vitro by the standard MTS assay for 24 and 72 h.
(§2) All the cell lines (human cervical carcinoma (HeLa), erythroleukemia (K-562), and T lymphocyte (Jurkat) as well as mouse colon carcinoma (CT26) and African green monkey kidney epithelial (Vero)) were obtained from the cell repository “Vertebrate cell culture collection” (supported by the Ministry of Science and Higher Education of the Russian Federation, agreement №075-15-2021-683, Institute of Cytology, Russian Academy of Sciences, Saint Petersburg, Russia). HeLa, Jurkat, and Vero cells were cultured in DMEM (HyClone, South Logan, UT, USA) supplemented with 10% (v/v) fetal bovine serum (Hyclone, GE Healthcare Life Sciences, Logan, UT, USA), and gentamicin (Sigma-Aldrich, St. Louis, MO, USA) at 37 °C in a humidified atmosphere with 5% CO2. K-562 and CT26 cells were grown at RPMI medium (Hyclone, GE Healthcare Life Sciences, Logan, UT, USA), with the same supplements and conditions.
(§3) To evaluate the in vitro toxicity of compounds synthesized, cells were seeded into 96-well plates at a density of 5 × 10^3 cells per well. On the next day, tested compounds were added to the wells at concentrations ranging from […], followed by incubation for 1 and 3 days. Cell proliferation was determined by adding 20 μL of MTS reagent (BioVision, Milpitas, CA, USA) stock solution per well. Each plate was incubated for 2 h at 37 °C in a humidified, 5% CO2 atmosphere. The plates were then read at 495 nm using plate spectrophotometer (Multiskan GO, Thermo Fisher Scientific, Waltham, MA, USA). All samples were measured in triplicates.

[2] = system: mouse colon carcinoma (CT26) cell line; test: MTS antiproliferative (cytotoxicity) assay, CT26; type: cell-based; details: for SI (selectivity index), CT26: Vero as reference cell line; for IC50: Mus musculus
Description: as §1, §2, §3

[3] = system: human erythroleukemia (K562) cell line; test: MTS antiproliferative (cytotoxicity) assay, K562; type: cell-based; details: for IC50: Homo sapiens; for SI (selectivity index), K562: Vero as reference cell line
Description: as §1, §2, §3

HeLa cells [4] = test: Cell cycle distribution by flow cytometry (propidium iodide), HeLa; type: cell-based, human; details: for SubG1 (%) / G2/M (%) / S (%) / G0/G1 (%): HeLa, 10 μg/mL, 24 h; for SubG1 (%): control 2.3 ± 0.4; for G2/M (%): control 12.2 ± 1.3; for S (%): control 12.5 ± 1.7; for G0/G1 (%): control 73.1 ± 2.6
Description: (§4) One of the indicators of the influence of biologically active products on the cells is the changed distribution of cells during different stages of the cell cycle. In this work, recently synthesized compounds were tested using flow cytometry for their effect on the distribution of cells in the cell cycle (G0/G1, G2/M, and S). Figure 8, Figure 9 and Figure 10 and Table 3 show the typical data after processing the results from three replicates of each experiment.
(§5) The distribution of HeLa and CT26 cells in the G0/G1-, S-, and G2/M-phases of the cell cycle was obtained by quantification of DNA content in propidium-iodide-stained cells using flow cytometry. Briefly, cells were seeded in 24-well plates at a density of 5 × 10^4 cells per well. After 24 h incubation, cells were exposed to 10 μg/mL of compounds 4c–i (the structure is provided in Scheme 1) for 24 h. The effects of compounds 4d, 4e, 4g, 4h were additionally tested at concentrations of 2 and 5 μg/mL. After incubation with drugs, the cells were detached by exposure to trypsin-EDTA for 5 min at 37 °C and then collected by pipetting. This was followed by treatment with 0.2 mg/mL saponin (Fluka, Waltham, MA, USA), 0.25 mg/mL RNase (Sigma-Aldrich, St. Louis, MO, USA), and 0.05 mg/mL propidium iodide (Invitrogen, Carlsbad, CA, USA). After washing, the samples were analyzed by standard flow cytometer (BD FACSCanto II, Becton Dickinson, San Jose, CA, USA). Then, 10,000 events were acquired for the sample. Data processing was performed using BD FACSDiva 9.0 software.

CT26 cells [5] = test: Annexin V-FITC/DAPI cell death analysis, CT26; type: cell-based, mouse; details: CT26, 10 μg/mL, 72 h; for Necrotic Cells, %: control 0.0 ± 0.0; for Late Apoptotic Cells, %: control 0.9 ± 0.4; for Early Apoptotic Cells, %: control 10.5 ± 0.7; for Live Cells, %: control 88.5 ± 1.1
Description: (§6) The results of cell death detection after the exposure of the HeLa and CT26 cell lines to spiro-fused cycloadducts 4c–i at a dose of 10 μg/mL for 72 h, using Annexin V-FITC/DAPI staining, are shown in Figure 6 and Figure 7, respectively.
(§7) Cells were seeded in 24-well plates, 5 × 10^4 cells per well. After 24 h incubation, cells were treated with compounds 4c–i for 72 h. Then, cells were washed, harvested by trypsinisation, stained with Annexin V-FITC ([…]) and DAPI (Thermo Fisher Scientific, Waltham, MA, USA), in accordance with the protocol of the manufacturer, and analyzed by flow cytometry. The proapoptotic effect of azaspiro[bicyclo[3.1.0]hexane-2,5′-pyrimidines] 4c–i was evaluated by an Annexin V-FITC/DAPI (AV/DAPI) dual-staining assay to examine the occurrence of phosphatidylserine externalization, which facilitated the detection of live cells (lower-left quadrant; AV−/DAPI−), early apoptotic cells (upper-left quadrant; AV+/DAPI−), late apoptotic cells (upper-right quadrant; AV+/DAPI+), and necrotic cells (lower-right quadrant; AV−/DAPI+).

HeLa cells [6] = test: Annexin V-FITC/DAPI cell death analysis, HeLa; type: cell-based, human; details: 10 μg/mL, 72 h; for Necrotic Cells, %: control 0.5 ± 0.3; for Early Apoptotic Cells, %: control 4.5 ± 0.7; for Live Cells, %: control 89.0 ± 0.7; for Late Apoptotic Cells, %: control 5.9 ± 0.4
Description: as §6, §7

[7] = system: African green monkey kidney epithelial (Vero) cell line; test: MTS antiproliferative (cytotoxicity) assay, Vero (reference); type: cell-based; details: Chlorocebus sabaeus, Vero
Description: as §1, §2, §3

CT26 cells [8] = test: Cell cycle distribution by flow cytometry (propidium iodide), CT26; type: cell-based, mouse; details: for SubG1 (%) / G2/M (%) / S (%) / G0/G1 (%): CT26, 10 μg/mL, 24 h; for SubG1 (%): control 3.6 ± 0.6; for G2/M (%): control 12.3 ± 0.9; for S (%): control 40.1 ± 1.5; for G0/G1 (%): control 44.0 ± 1.7; for cytostatic effect (cell cycle), CT26: CT26 cell line
Description: as §4, §5

[9] = 24 h, read-out: IC50, HeLa, 24 h
[10] = 72 h, read-out: IC50, HeLa, 72 h
[11] = CT26, 24 h, read-out: IC50, CT26, 24 h
[12] = CT26, 72 h, read-out: IC50, CT26, 72 h
[13] = K562, 24 h, read-out: IC50, K562, 24 h
[14] = K562, 72 h, read-out: IC50, K562, 72 h
[15] = 24 h, read-out: IC50, Vero, 24 h
[16] = 72 h, read-out: IC50, Vero, 72 h

SMILES	SI (selectivity index), HeLa [1]	IC50 [1, 9] [µM]	IC50 [1, 10] [µM]	SI (selectivity index), CT26 [2]	IC50 [2, 11] [µM]	IC50 [2, 12] [µM]	IC50 [3, 13] [µM]	IC50 [3, 14] [µM]	SI (selectivity index), K562 [3]	SubG1 (%) (HeLa cells [4])	G2/M (%) (HeLa cells [4])	S (%) (HeLa cells [4])	G0/G1 (%) (HeLa cells [4])	Necrotic Cells, % (CT26 cells [5]) [%]	Late Apoptotic Cells, % (CT26 cells [5]) [%]	Early Apoptotic Cells, % (CT26 cells [5]) [%]	Live Cells, % (CT26 cells [5])	Necrotic Cells, % (HeLa cells [6]) [%]	Early Apoptotic Cells, % (HeLa cells [6]) [%]	Live Cells, % (HeLa cells [6])	further results
CC[C@@H]1NC2(C(=O)NC(=O)NC2=O)[C@]2(c3ccccc3)[C@@H](c3ccccc3)[C@]12c1ccccc1 [Compound 4c]	1.3	21 ± 2	13 ± 2	0.8	27 ± 2	20 ± 2	12 ± 2	5 ± 2	3.2	8.1 ± 1.9	11.0 ± 1.5	17.6 ± 1.2	63.3 ± 2.2	1.8 ± 0.8	6.4 ± 1.0	1.9 ± 0.3	89.8 ± 0.5%	2.2 ± 0.5	5.6 ± 1.3	81.0 ± 4.4 %	rate of cell death in HeLa vs control (HeLa cells [6]): not different from the control; IC50 [7, 15]: 47 ± 11 µM; IC50 [7, 16]: 16 ± 2 µM; SubG1 (%) (CT26 cells [8]): 2.0 ± 0.4 %; G2/M (%) (CT26 cells [8]): 13.2 ± 2.9 %; S (%) (CT26 cells [8]): 16.3 ± 1.7 %; G0/G1 (%) (CT26 cells [8]): 68.5 ± 3.0 %
CCC[C@@H]1NC2(C(=O)NC(=O)NC2=O)[C@]2(c3ccccc3)[C@@H](c3ccccc3)[C@]12c1ccccc1 [Compound 4d]	1.1	17 ± 2	15 ± 2	1.3	17 ± 2	13 ± 2	21 ± 4	9 ± 2	1.8	18.1 ± 1.0	8.4 ± 1.5	15.5 ± 1.1	58.0 ± 4.4	1.1 ± 0.3	56.4 ± 2.4	9.6 ± 0.5	32.8 ± 3.0 %	3.6 ± 1.8	11.6 ± 0.2	46.8% and 46.8 ± 18.4 %	Late Apoptotic Cells, % (HeLa cells [6]): 38.1 ± 16.8 %; IC50 [7, 15]: 48 ± 4 µM; IC50 [7, 16]: 16 ± 2 µM; SubG1 (%) (CT26 cells [8]): 12.2 ± 1.1 %; G2/M (%) (CT26 cells [8]): 17.9 ± 0.6 %; S (%) (CT26 cells [8]): 34.4 ± 2.3 %; G0/G1 (%) (CT26 cells [8]): 35.6 ± 1.0 %; cytostatic effect (cell cycle), CT26 (CT26 cells [8]): best effect
CC(C)C[C@@H]1NC2(C(=O)NC(=O)NC2=O)[C@]2(c3ccccc3)[C@@H](c3ccccc3)[C@]12c1ccccc1 [Compound 4f]	0.5	19 ± 2	23 ± 6	1.0	17 ± 2	10 ± 2	17 ± 4	6 ± 2	1.7	10.5 ± 2.0	12.8 ± 1.3	15.2 ± 1.2	61.5 ± 3.3	1.9 ± 0.5	57.8 ± 3.1	6.2 ± 1.2	34.1 ± 3.8 %	2.1 ± 1.3	2.9 ± 0.1	90.9 ± 1.6%	rate of cell death in HeLa vs control (HeLa cells [6]): not different from the control; Late Apoptotic Cells, % (HeLa cells [6]): 4.1 ± 0.5 %; IC50 [7, 15]: 48 ± 6 µM; IC50 [7, 16]: 10 ± 2 µM; SubG1 (%) (CT26 cells [8]): 24.9 ± 5.2 %; G2/M (%) (CT26 cells [8]): 13.5 ± 0.9 %; S (%) (CT26 cells [8]): 31.9 ± 2.6 %; G0/G1 (%) (CT26 cells [8]): 29.7 ± 1.4 %; cytostatic effect (cell cycle), CT26 (CT26 cells [8]): best effect
CCCC[C@@H]1NC2(C(=O)NC(=O)NC2=O)[C@]2(c3ccccc3)[C@@H](c3ccccc3)[C@]12c1ccccc1 [Compound 4e]	0.8	13 ± 2	13 ± 4	1.7	10 ± 2	6 ± 2	17 ± 2	4 ± 2	2.5	34.4 ± 5.8	5.7 ± 0.9	16.7 ± 1.2	43.1 ± 1.4	1.4 ± 0.1	61.6 ± 0.5	23.4 ± 0.8	13.5% and 13.5 ± 0.4 %	5.6 ± 2.6	18.1 ± 3.1	15.0% and 15.0 ± 2.7 %	cytostatic effect (cell cycle), HeLa (HeLa cells [4]; HeLa cell line): strongest cytostatic effect; Late Apoptotic Cells, % (HeLa cells [6]): 61.3 ± 3.8 %; IC50 [7, 15]: 23 ± 2 µM; IC50 [7, 16]: 10 ± 2 µM; SubG1 (%) (CT26 cells [8]): 19.3 ± 5.1 %; G2/M (%) (CT26 cells [8]): 14.1 ± 9.4%; S (%) (CT26 cells [8]): 28.5 ± 1.8 %; G0/G1 (%) (CT26 cells [8]): 38.1 ± 6.4 %; cytostatic effect (cell cycle), CT26 (CT26 cells [8]): best effect
